Assay results as given in patent publication US12616685B2, “Concomitant administration of glucocorticoid receptor modulator relacorilant and CYP2C9 substrates” (Corcept Therapeutics Incorporated, priority 2020, dated 2026).

Tests used:
[1] = Clinical drug-drug interaction study in healthy volunteers (tolbutamide alone vs with relacorilant); conditions: for effect of relacorilant co-administration on AUC0-tz and AUCinf / reduction of Cmax on co-administration of relacorilant: 500 mg tolbutamide with 350 mg relacorilant vs tolbutamide alone; for AUC0-tz, Ratio of Geometric LSMs (%) / AUCinf, Ratio of Geometric LSMs (%) / Cmax, Ratio of Geometric LSMs (%): 100*(Test/Reference), Treatment E (with relacorilant) vs Treatment B (tolbutamide alone)
Method: An open-label, crossover study was conducted in healthy subjects to determine the effect of relacorilant on the plasma exposure of tolbutamide, a known substrate of CYP2C9. A single 500 mg dose of tolbutamide was administered alone and pharmacokinetic (PK) samples were collected before dosing (0 hour) and at 0.5, 1, 1.5, 2, 2.5, 3, 4, 6, 8, 12, 18, 24, 36, and 48 hours post-dose. Relacorilant (350 mg) was then administered once a day for 10 consecutive days. On the following day, a single 500 mg dose of tolbutamide was administered in combination with relacorilant 350 mg and pharmacokinetic (PK) samples were again collected at pre-dose through 48 hours post-dose at the same timepoints as described above. The plasma concentrations of tolbutamide and its metabolite, 4-hydroxy tolbutamide were evaluated by validated bioanalytical assays on each dosing occasion of tolbutamide.
• ANOVA, analysis of variance; AUCinf, AUC from time 0 extrapolated to infinity; AUC0-tz, AUC from time 0 until the time of the last measurable concentration; Cmax, maximum plasma concentration; CV %, coefficient of variation; LSM, least squares mean. • Treatment B: Single oral dose of 500 mg tolbutamide (Reference). • Treatment E: Single oral dose of 500 mg tolbutamide and 350 mg relacorilant administered on Day 15 followed by oral doses of 350 mg relacorilant administered QD on Days 16 and 17 (Test). • Parameters were ln-transformed prior to analysis. • Geometric Least Square means (LSMs) were calculated by exponentiating the LSMs from the ANOVA. • Ratio of Geometric LSMs=100*(Test/Reference); where Test is Treatment E and Reference is Treatment B.

CYP2C9 = CYP2C9 (Homo sapiens, UniProt P11712); experiment: biochemical
Method: Cytochrome P450 (CYP) isoforms CYP1A2, CYP2C9, CYP2C19, CYP2D6, and CYP3A4, heterologously expressed in E. coli, were obtained from Cypex and mixed to produce a 5-CYP mix. A selective and FDA accepted substrate for each isoform was present in the reaction at a concentration around its Km.
The 5-CYP mix and a CYP substrate cocktail were added and the tubes warmed for 3 minutes whilst mixing on a BioShake IQ (37° C., 1500 rpm). NADPH (final concentration 1 mM) was added and the mixture was incubated for 10 minutes. Methanol containing an internal standard (1 μM tolbutamide) was then added to all samples, and these were mixed and placed at −20° C. for ≥1 hour to quench the reaction and allow protein to precipitate.
All samples were centrifuged (2500×g, 20 minutes, 4° C.). The supernatants were transferred to a fresh 96 well plate, compatible with an autosampler. The plate was sealed with a pre-slit silicone mat and the metabolites were analyzed by LC-MS/MS. […]
The final concentration in the assay of the 5-CYP mix was 32.5 pmol/ml for each of the enzymes evaluated (i.e., CYP1A2, CYP2C9, CYP2C19, CYP2D6, and CYP3A4). […]
The metabolites measured were: CYP1A2, 1-hydroxytacrine; CYP2C9, 4′-hydroxy diclofenac; CYP2C19, 4′-hydroxymephenytoin; CYP2D6, hydroxybufuralol; CYP3A4, 1′hydroxymidazolam. […]

[2] = co-administered with CYP2C9 inhibitor sulfaphenazole, human subjects; Perkins et al. 2018; cited from earlier work
[3] = plasma, single oral 500 mg tolbutamide alone, healthy subjects
[4] = plasma, single oral 500 mg tolbutamide with 350 mg relacorilant after once-daily relacorilant, healthy subjects

CYP2C9, sequence (P11712 whole entry): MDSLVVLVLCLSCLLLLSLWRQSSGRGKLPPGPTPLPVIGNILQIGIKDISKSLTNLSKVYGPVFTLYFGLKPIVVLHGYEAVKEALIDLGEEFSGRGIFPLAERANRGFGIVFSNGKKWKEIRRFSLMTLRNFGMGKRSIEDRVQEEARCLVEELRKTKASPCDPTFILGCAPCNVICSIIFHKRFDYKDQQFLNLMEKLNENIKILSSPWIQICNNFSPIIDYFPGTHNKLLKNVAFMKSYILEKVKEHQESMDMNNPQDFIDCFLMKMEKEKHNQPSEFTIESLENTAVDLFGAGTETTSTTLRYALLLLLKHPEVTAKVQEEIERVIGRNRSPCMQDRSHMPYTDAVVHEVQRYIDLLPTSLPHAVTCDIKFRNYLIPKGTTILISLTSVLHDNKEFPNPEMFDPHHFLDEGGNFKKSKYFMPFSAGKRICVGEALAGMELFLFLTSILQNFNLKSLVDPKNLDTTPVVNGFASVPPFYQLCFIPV

Structure (SMILES)	effect of relacorilant co-administration on AUC0-tz and AUCinf [1]	reduction of Cmax on co-administration of relacorilant [1]	AUC0-tz, Ratio of Geometric LSMs (%) [1]	AUCinf, Ratio of Geometric LSMs (%) [1]	Cmax, Ratio of Geometric LSMs (%) [1]	AUC0-tz, Geometric LSM, Reference (Day 2) Treatment B [1, 3]	AUCinf, Geometric LSM, Reference (Day 2) Treatment B [1, 3]	Cmax, Geometric LSM, Reference (Day 2) Treatment B [1, 3]	AUC0-tz, Geometric LSM, Test (Day 15) Treatment E [1, 4]	AUCinf, Geometric LSM, Test (Day 15) Treatment E [1, 4]	Cmax, Geometric LSM, Test (Day 15) Treatment E [1, 4]	IC50 (CYP2C9)	AUC(0-inf) ([1]; human, plasma, po, 500 mg)	AUC(0-t) ([1]; human, plasma, po, 500 mg)	Cmax ([1]; human, plasma, po, 500 mg)	fold increase in plasma level of tolbutamide (AUC) with sulfaphenazole [2]
CCCCNC(=O)NS(=O)(=O)c1ccc(CO)cc1 [4-OH Tolbutamide, 4-hydroxy tolbutamide]	no effect	approximately 37%	88.80%	89.91%	63.49%	8.619 µg·h/mL	8.954 µg·h/mL	604.3 ng/mL	7.653 µg·h/mL	8.051 µg·h/mL	383.6 ng/mL	–	–	–	–	–
Cn1cc(S(=O)(=O)N2CCC3=Cc4c(cnn4-c4ccc(F)cc4)C[C@]3(C(=O)c3cc(C(F)(F)F)ccn3)C2)cn1 [Relacorilant, (R)-(1-(4-fluorophenyl)-6-((1-methyl-1H-pyrazol-4-yl)sulfonyl)-4,4a,5,6,7,8-hexahydro-1H-pyrazolo[3,4-g]isoquinolin-4a-yl)(4-(trifluoromethyl)pyridine-2-yl)methanone]	–	–	–	–	–	–	–	–	–	–	–	2.1 µM	–	–	–	–
CCCCNC(=O)NS(=O)(=O)c1ccc(C)cc1 [Tolbutamide, tolbutamide, reference compound]	no effect	approximately 31%	89.11%	89.54%	69.22%	–	–	–	–	–	–	–	602 µg·h/mL	579 µg·h/mL	42400 ng/mL	more than 5 fold
